Laboratory results published in the supplement of paper PMC10307832.

How the values were obtained:
Assay in all cases: relative viability (nuclei count vs DMSO), 5 days (fraction); higher = more cells survive
[1] = compound: CN1C=C(C2=CC=CC=C21)/C=C\3/C4=C(C=CC=N4)NC3=O + O=C(c1cc(Cc2n[nH]c(=O)c3ccccc23)ccc1F)N1CCN(C(=O)C2CC2)CC1 [Olaparib] (partner 8 µM)
Method in brief: (§1)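 Lung cancer cell lines were pin-tool dosed in 1536-well plates on the day after seeding, with either a lone drug or a fixed anchor-drug dose plus five library-drug doses (not always all listed) in √10 steps. Nuclei were counted on 4× images after 5 days. Relative viability is the ratio of treated-well to vehicle-well nuclei counts, with each value a median of duplicate plates.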

Trametinib + Navitoclax = compound: CC(=O)Nc1cccc(-n2c(=O)n(C3CC3)c(=O)c3c(Nc4ccc(I)cc4F)n(C)c(=O)c(C)c32)c1 [Trametinib] + CC1(C)CCC(c2ccc(Cl)cc2)=C(CN2CCN(c3ccc(C(=O)NS(=O)(=O)c4ccc(N[C@H](CCN5CCOCC5)CSc5ccccc5)c(S(=O)(=O)C(F)(F)F)c4)cc3)CC2)C1 [Navitoclax] (partner 0.5 µM)
Method in brief: as §1

[2] = compound: CN1C=C(C2=CC=CC=C21)/C=C\3/C4=C(C=CC=N4)NC3=O + C[C@@H](Oc1cc(-c2cnn(C3CCNCC3)c2)cnc1N)c1c(Cl)ccc(F)c1Cl [Crizotinib] (partner 1 µM)
Method in brief: as §1

Trametinib + Pemetrexed = compound: CC(=O)Nc1cccc(-n2c(=O)n(C3CC3)c(=O)c3c(Nc4ccc(I)cc4F)n(C)c(=O)c(C)c32)c1 [Trametinib] + Nc1nc2[nH]cc(CCc3ccc(C(=O)N[C@@H](CCC(=O)O)C(=O)O)cc3)c2c(=O)[nH]1 [Pemetrexed] (partner 0.2 µM)
Method in brief: as §1

Cell Line | relative viability ([1]; first compound 0.02 µM) | relative viability ([1]; first compound 0.06325 µM) | relative viability ([1]; first compound 0.2 µM) | relative viability ([1]; first compound 0.6325 µM) | relative viability ([1]; first compound 2 µM) | relative viability (Trametinib + Navitoclax; first compound 0.0025 µM) | relative viability (Trametinib + Navitoclax; first compound 0.007906 µM) | relative viability (Trametinib + Navitoclax; first compound 0.025 µM) | relative viability (Trametinib + Navitoclax; first compound 0.07906 µM) | relative viability (Trametinib + Navitoclax; first compound 0.25 µM) | relative viability ([2]; first compound 0.02 µM) | relative viability ([2]; first compound 0.06325 µM) | relative viability ([2]; first compound 0.2 µM) | relative viability ([2]; first compound 0.6325 µM) | relative viability ([2]; first compound 2 µM) | relative viability (Trametinib + Pemetrexed; first compound 0.0025 µM) | relative viability (Trametinib + Pemetrexed; first compound 0.007906 µM) | relative viability (Trametinib + Pemetrexed; first compound 0.025 µM) | relative viability (Trametinib + Pemetrexed; first compound 0.07906 µM) | relative viability (Trametinib + Pemetrexed; first compound 0.25 µM)
NCI-H2023 | 0.451 | 0.53 | 0.566 | 0.432 | 0.517 | 0.864 | 0.825 | 0.877 | 0.549 | 0.33 | 0.647 | 0.543 | 0.606 | 0.62 | 0.694 | 0.205 | 0.187 | 0.184 | 0.189 | 0.14
Calu-6 | 0.504 | 0.528 | 0.569 | 0.488 | 0.787 | 0.601 | 0.295 | 0.177 | 0.129 | 0.127 | 0.675 | 0.783 | 0.815 | 0.772 | 0.816 |  |  |  |  | 
SW 900 | 0.463 |  |  | 0.768 | 0.655 |  |  |  |  |  |  |  |  |  |  | 0.439 | 0.471 | 0.487 | 0.459 | 0.224
HOP-62 | 0.537 | 0.509 |  | 0.968 | 0.629 | 1.05 | 1.03 | 0.741 | 0.617 | 0.198 | 0.902 | 0.938 | 0.789 | 0.918 | 1.01 | 0.407 | 0.31 | 0.345 | 0.308 | 0.183
H3255 | 0.64 | 0.554 | 0.55 | 0.606 | 0.602 | 0.468 | 0.316 | 0.251 | 0.161 | 0.18 | 0.91 | 0.935 | 0.874 | 0.888 | 0.889 | 0.538 | 0.506 | 0.514 | 0.473 | 0.463
NCI-H1734 | 0.355 | 0.596 |  | 0.588 | 0.631 | 0.865 | 0.736 |  | 0.657 | 0.474 | 0.665 | 0.677 |  | 0.696 | 0.744 | 0.418 | 0.383 |  | 0.387 | 0.355
SK-MES-1 | 0.638 | 0.516 | 0.592 | 0.544 | 0.505 | 1.3 | 1.25 | 0.943 | 0.624 | 0.357 | 0.972 | 0.84 | 1.03 | 0.976 | 0.967 | 0.916 | 0.736 | 0.664 | 0.428 | 0.407
NCI-H1792 | 0.502 | 0.349 | 0.32 | 0.254 | 0.376 | 0.646 | 0.596 | 0.417 | 0.392 | 0.332 | 0.759 | 0.999 | 0.87 |  | 0.898 | 0.751 | 0.645 | 0.363 | 0.328 | 0.154
EKVX | 0.892 |  |  | 0.8 | 0.717 | 0.728 | 0.627 | 0.37 | 0.376 | 0.371 | 0.835 | 0.927 | 0.913 | 0.792 | 0.876 | 0.345 | 0.381 | 0.402 | 0.312 | 0.358
EPLC-272H | 1.16 | 0.706 | 0.712 |  | 0.682 | 0.962 | 0.914 | 0.455 | 0.709 | 0.359 | 0.924 | 0.96 |  | 0.909 | 1.06 | 0.318 | 0.328 | 0.287 | 0.294 | 0.27
LK-2 | 0.563 | 0.528 |  | 0.422 | 0.66 | 0.745 | 0.897 | 0.767 | 0.946 | 0.368 |  | 0.205 | 0.202 | 0.243 | 0.219 | 0.226 | 0.305 | 0.213 | 0.184 | 0.102
CAL-12T | 0.729 | 0.587 | 0.617 | 0.75 | 0.625 | 1.04 | 0.831 | 0.554 | 0.738 | 0.492 | 0.552 | 0.654 | 0.549 | 0.81 | 0.743 | 1.21 | 1.15 | 0.753 | 0.483 | 0.589
NCI-H322M | 0.766 | 0.717 | 0.718 | 0.961 | 0.923 | 1.15 | 0.97 | 1.01 | 0.827 | 0.687 | 0.827 | 0.841 | 0.876 | 0.902 | 0.933 | 0.581 | 0.556 | 0.544 | 0.417 | 0.435
NCI-H1650 | 0.843 | 0.69 | 0.718 | 0.714 | 0.749 | 0.94 | 0.857 | 0.816 | 0.473 | 0.35 | 0.908 | 0.889 | 0.856 | 1.06 | 1.05 | 0.388 | 0.324 | 0.314 | 0.329 | 0.216
NCI-H2342 | 0.49 | 0.449 | 0.47 | 0.453 | 0.461 |  |  |  |  |  |  |  |  |  |  | 0.688 | 0.727 | 0.459 | 0.689 | 0.685
SW 1573 | 0.5 | 0.425 | 0.434 | 0.453 | 0.529 | 0.723 | 0.885 | 0.609 | 0.546 | 0.404 | 0.727 | 0.832 | 0.816 | 0.712 | 0.874 | 0.732 | 0.76 | 0.538 | 0.555 | 0.331
NCI-H2405 | 0.854 | 0.843 | 0.729 | 0.87 | 0.804 | 0.732 | 0.515 | 0.48 | 0.423 | 0.305 | 0.769 | 0.832 |  | 0.829 | 0.821 | 0.995 | 0.947 | 0.464 |  | 0.554
